molecular target: JNK3 (Homo sapiens, UniProt P53779); assay: JNK3 SPA assay; format: biochemical; conditions: 3.33 μM ATP, GST-c-Jun substrate; read-out: IC50 against JNK3
Method: JNK1, JNK2, JNK3—SPA Assay
JNK1, JNK2, JNK3—SPA Assay • 1. Compound is dissolved in DMSO to a convenient concentration and this is diluted in 10% DMSO to a five times concentrate of the desired starting concentration (frequently 1:100). • 2. 10 μl of 500 mM EDTA is added to alternative wells of the Opti-plate row, which will receive kinase reaction plus DMSO. This creates the negative control. • 3. For the JNK2 and JNK3 assay, compounds are prepared in six 2-fold dilutions with water and each concentration is tested in duplicate. For the JNK1 assay compounds are prepared in four 5-fold dilutions with water which are tested in triplicate. Controls are treated identically. • 4. 20 μl per well of each compound concentration is transferred to an Opti-plate, in duplicate. • 5. 30 μl (JNK2/3 SPA) or 50 μl (JNK1 SPA) of substrate solution (25 mM HEPES pH 7.5, 10 mM magnesium acetate with 3.33 μM ATP (JNK2/3) or 2 μM ATP (JNK1), approximately 7.5 kBq [γ-^33P] ATP, GST-c-Jun, in water) is added to each well. • 6. 50 μl (JNK2/3 SPA) or 30 μl (JNK1 SPA) of kinase solution (JNK in 25 mM HEPES pH 7.5, 10 mM Mg Acetate) is added to each well.
• 7. The plate is incubated for 30 minutes at room temperature. • 8. 100 μl of bead/stop solution is added to each well (5 mg/ml glutathione-PVT-SPA beads, 40 mM ATP in PBS). • 9. Plates are sealed and incubated for 30 minutes at room temperature, centrifuged for 10 minutes at 2500 g and counted. • 10. The IC50 values are calculated as the concentration of the compound being tested at which the phosphorylation of c-Jun is decreased to 50% of the control value.

Chain of JNK3 (P53779 whole entry, species assumed): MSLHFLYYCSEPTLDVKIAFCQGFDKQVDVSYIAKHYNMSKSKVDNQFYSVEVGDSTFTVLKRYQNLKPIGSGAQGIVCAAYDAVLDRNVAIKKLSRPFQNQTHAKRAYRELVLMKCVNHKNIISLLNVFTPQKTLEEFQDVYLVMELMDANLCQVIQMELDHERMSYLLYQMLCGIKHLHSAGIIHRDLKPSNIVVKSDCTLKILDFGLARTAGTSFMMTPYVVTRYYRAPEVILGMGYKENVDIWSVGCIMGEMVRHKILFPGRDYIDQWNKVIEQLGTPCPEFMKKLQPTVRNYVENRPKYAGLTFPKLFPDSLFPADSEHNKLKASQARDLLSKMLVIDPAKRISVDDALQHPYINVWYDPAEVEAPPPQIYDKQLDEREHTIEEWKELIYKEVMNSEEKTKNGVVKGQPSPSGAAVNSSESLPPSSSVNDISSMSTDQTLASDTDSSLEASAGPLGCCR

Question: How did the IC50 turn out when `Cn1cc(-c2c[nH]c3ncc([C@H]4CC[C@@H](N5CCCCC5)CC4)cc23)cn1` [Compound I-46, 3-(1-methyl-1H-pyrazol-4-yl)-5-((1s,4s)-4-(piperidin-1-yl)cyclohexyl)-1H-pyrrolo[2,3-b]pyridine] was run?
Answer: Its IC50 is 151 nM.

Question: Which IC50 does the source give for `Cn1cc(-c2c[nH]c3ncc([C@H]4CC[C@H](N5CCC(F)(F)C5)CC4)cc23)cn1` [Compound I-47, 5-((1r,4r)-4-(3,3-difluoropyrrolidin-1-yl)cyclohexyl)-3-(1-methyl-1H-pyrazol-4-yl)-1H-pyrrolo[2,3-b]pyridine] here?
Answer: Its IC50 is 93 nM.

Question: For `Cn1cc(-c2c[nH]c3ncc([C@H]4CC[C@@H](N5CCC(F)(F)C5)CC4)cc23)cn1` [Compound I-48, 5-((1s,4s)-4-(3,3-difluoropyrrolidin-1-yl)cyclohexyl)-3-(1-methyl-1H-pyrazol-4-yl)-1H-pyrrolo[2,3-b]pyridine], which IC50 is on record?
Answer: The IC50 was 182 nM.

Question: Which IC50 does the source give for `Cn1cc(-c2c[nH]c3ncc([C@H]4CC[C@@H](N5CC[C@H](F)C5)CC4)cc23)cn1` [Compound I-49, 5-((1R,4s)-4-((S)-3-fluoropyrrolidin-1-yl)cyclohexyl)-3-(1-methyl-1H-pyrazol-4-yl)-1H-pyrrolo[2,3-b]pyridine] here?
Answer: Its IC50 is 316 nM.

Question: For `Cn1cc(-c2c[nH]c3ncc([C@H]4CC[C@H](N5CC[C@H](F)C5)CC4)cc23)cn1` [Compound I-50, 5-((1S,4r)-4-((S)-3-fluoropyrrolidin-1-yl)cyclohexyl)-3-(1-methyl-1H-pyrazol-4-yl)-1H-pyrrolo[2,3-b]pyridine], which IC50 is on record?
Answer: Its IC50 is 214 nM.

Question: For `Cn1cc(-c2c[nH]c3ncc(C4=CC5(CC4)OCCO5)cc23)cn1` [Compound I-51, 3-(1-methyl-1H-pyrazol-4-yl)-5-(1,4-dioxaspiro[4.4]non-6-en-7-yl)-1H-pyrrolo[2,3-b]pyridine], which IC50 is on record?
Answer: The IC50 was 191 nM.

Question: How did the IC50 turn out when `CCN(CC)C1CCC(c2cnc3[nH]cc(-c4cnn(C)c4)c3c2)CC1` (stereo not shown) [Compound I-52, N,N-diethyl-4-(3-(1-methyl-1H-pyrazol-4-yl)-1H-pyrrolo[2,3-b]pyridin-5-yl)cyclohexanamine] was run?
Answer: The IC50 was 251 nM.

Question: Which IC50 does the source give for `Cn1cc(-c2c[nH]c3ncc([C@H]4CC[C@@H](N5CC[C@@H](F)C5)CC4)cc23)cn1` [Compound I-53, 5-((1S,4s)-4-((R)-3-fluoropyrrolidin-1-yl)cyclohexyl)-3-(1-methyl-1H-pyrazol-4-yl)-1H-pyrrolo[2,3-b]pyridine] here?
Answer: Its IC50 is 182 nM.

Question: How did the IC50 turn out when `Cn1cc(-c2c[nH]c3ncc([C@H]4CC[C@H](N5CC[C@@H](F)C5)CC4)cc23)cn1` [Compound I-54, 5-((1R,4r)-4-((R)-3-fluoropyrrolidin-1-yl)cyclohexyl)-3-(1-methyl-1H-pyrazol-4-yl)-1H-pyrrolo[2,3-b]pyridine] was run?
Answer: Its IC50 is 174 nM.

Question: With `CCNC1CCC(c2cnc3[nH]cc(-c4cnn(C)c4)c3c2)CC1` (stereo not shown) [Compound I-55, Ethyl-{4-[3-(1-methyl-1H-pyrazol-4-yl)-1H-pyrrolo[2,3-b]pyridin-5-yl]-cyclohexyl}-amine] as the compound, how does the IC50 read?
Answer: Its IC50 is 263 nM.

Question: With `c1nn(CCN2CCOCC2)cc1-c1c[nH]c2ncc([C@H]3CC[C@H](N4CCOCC4)CC3)cc12` [Compound I-57, 4-(2-(4-(5-((1r,4r)-4-morpholinocyclohexyl)-1H-pyrrolo[2,3-b]pyridin-3-yl)-1H-pyrazol-1-yl)ethyl)morpholine] as the compound, how does the IC50 read?
Answer: The IC50 was 417 nM.

Question: Which IC50 does the source give for `c1nn(CCN2CCOCC2)cc1-c1c[nH]c2ncc([C@H]3CC[C@@H](N4CCOCC4)CC3)cc12` [Compound I-58, 4-(2-(4-(5-((1s,4s)-4-morpholinocyclohexyl)-1H-pyrrolo[2,3-b]pyridin-3-yl)-1H-pyrazol-1-yl)ethyl)morpholine] here?
Answer: The IC50 was greater than 500 nM.

Question: How did the IC50 turn out when `CN(C)[C@H]1CC[C@@H](c2cnc3[nH]cc(-c4cnn(CCN5CCOCC5)c4)c3c2)CC1` [Compound I-59, (1s,4s)-N,N-dimethyl-4-(3-(1-(2-morpholinoethyl)-1H-pyrazol-4-yl)-1H-pyrrolo[2,3-b]pyridin-5-yl)cyclohexanamine] was run?
Answer: Its IC50 is greater than 500 nM.

Question: With `CN(C)[C@H]1CC[C@H](c2cnc3[nH]cc(-c4cnn(CCN5CCOCC5)c4)c3c2)CC1` [Compound I-60, (1r,4r)-N,N-dimethyl-4-(3-(1-(2-morpholinoethyl)-1H-pyrazol-4-yl)-1H-pyrrolo[2,3-b]pyridin-5-yl)cyclohexanamine] as the compound, how does the IC50 read?
Answer: The IC50 was greater than 500 nM.

Question: `C1=C(c2cnc3[nH]cc(-c4cnn(CCN5CCOCC5)c4)c3c2)CCC1` [Compound I-62, 5-Cyclopent-1-enyl-3-[1-(2-morpholin-4-yl-ethyl)-1H-pyrazol-4-yl]-1H-pyrrolo[2,3-b]pyridine] was tested. Which IC50 did it give?
Answer: Its IC50 is 105 nM.

Question: How did the IC50 turn out when `COC1(c2cnc3[nH]cc(-c4cnn(C)c4)c3c2)CCCC1` [Compound I-63, 5-(1-methoxycyclopentyl)-3-(1-methyl-1H-pyrazol-4-yl)-1H-pyrrolo[2,3-b]pyridine] was run?
Answer: Its IC50 is 468 nM.

Question: With `c1nn(CCN2CCOCC2)cc1-c1c[nH]c2ncc(C3CCCC3)cc12` [Compound I-64, 5-Cyclopentyl-3-[1-(2-morpholin-4-yl-ethyl)-1H-pyrazol-4-yl]-1H-pyrrolo[2,3-b]pyridine] as the compound, how does the IC50 read?
Answer: Its IC50 is 158 nM.

Question: Which IC50 does the source give for `CN1CCN([C@H]2CC[C@H](c3cnc4[nH]cc(-c5cnn(C(F)(F)F)c5)c4c3)CC2)CC1` [Compound I-66, 5-((1r,4r)-4-(4-methylpiperazin-1-yl)cyclohexyl)-3-(1-(trifluoromethyl)-1H-pyrazol-4-yl)-1H-pyrrolo[2,3-b]pyridine] here?
Answer: Its IC50 is 219 nM.

Question: Which IC50 does the source give for `CN1CCN([C@H]2CC[C@@H](c3cnc4[nH]cc(-c5cnn(C(F)(F)F)c5)c4c3)CC2)CC1` [Compound I-67, 5-((1s,4s)-4-(4-methylpiperazin-1-yl)cyclohexyl)-3-(1-(trifluoromethyl)-1H-pyrazol-4-yl)-1H-pyrrolo[2,3-b]pyridine] here?
Answer: The IC50 was 178 nM.

Question: How did the IC50 turn out when `Cn1cc(-c2c[nH]c3ncc([C@H]4CC[C@H](CO)CC4)cc23)cn1` [Compound I-74, ((1r,4r)-4-(3-(1-methyl-1H-pyrazol-4-yl)-1H-pyrrolo[2,3-b]pyridin-5-yl)cyclohexyl)methanol] was run?
Answer: The IC50 was 63 nM.

Question: For `Cn1cc(-c2c[nH]c3ncc(C4=CCC(N5CCOCC5)CC4)cc23)cn1` (stereo not shown) [Compound I-75, 3-(1-Methyl-1H-pyrazol-4-yl)-5-(4-morpholin-4-yl-cyclohex-1-enyl)-1H-pyrrolo[2,3-b]pyridine], which IC50 is on record?
Answer: The IC50 was 89 nM.

Question: How did the IC50 turn out when `Cn1cc(-c2c[nH]c3ncc([C@H]4CC[C@H](C(=O)O)CC4)cc23)cn1` [Compound I-76, (1r,4r)-4-(3-(1-methyl-1H-pyrazol-4-yl)-1H-pyrrolo[2,3-b]pyridin-5-yl)cyclohexanecarboxylic acid] was run?
Answer: Its IC50 is 251 nM.

Question: Which IC50 does the source give for `Cn1cc(-c2c[nH]c3ncc([C@H]4CC[C@@H](C(=O)O)CC4)cc23)cn1` [Compound I-77, (1s,4s)-4-(3-(1-methyl-1H-pyrazol-4-yl)-1H-pyrrolo[2,3-b]pyridin-5-yl)cyclohexanecarboxylic acid] here?
Answer: The IC50 was greater than 500 nM.

Question: `c1n[nH]cc1-c1c[nH]c2ncc([C@H]3CC[C@@H](N4CCOCC4)CC3)cc12` [Compound I-78, 4-((1s,4s)-4-(3-(1H-pyrazol-4-yl)-1H-pyrrolo[2,3-b]pyridin-5-yl)cyclohexyl)morpholine] was tested. Which IC50 did it give?
Answer: The IC50 was 288 nM.

Question: For `c1n[nH]cc1-c1c[nH]c2ncc([C@H]3CC[C@H](N4CCOCC4)CC3)cc12` [Compound I-79, 4-((1r,4r)-4-(3-(1H-pyrazol-4-yl)-1H-pyrrolo[2,3-b]pyridin-5-yl)cyclohexyl)morpholine], which IC50 is on record?
Answer: The IC50 was 117 nM.

Question: `FC(F)n1cc(-c2c[nH]c3ncc([C@H]4CC[C@H](N5CCOCC5)CC4)cc23)cn1` [Compound I-80, 4-((1r,4r)-4-(3-(1-(difluoromethyl)-1H-pyrazol-4-yl)-1H-pyrrolo[2,3-b]pyridin-5-yl)cyclohexyl)morpholine] was tested. Which IC50 did it give?
Answer: The IC50 was 148 nM.

Question: With `Cc1c(-c2c[nH]c3ncc([C@H]4CC[C@H](N5CCOCC5)CC4)cc23)cnn1C` [Compound I-95, 4-((1r,4r)-4-(3-(1,5-dimethyl-1H-pyrazol-4-yl)-1H-pyrrolo[2,3-b]pyridin-5-yl)cyclohexyl)morpholine] as the compound, how does the IC50 read?
Answer: The IC50 was 1510 nM.

Question: Which IC50 does the source give for `Cc1c(-c2c[nH]c3ncc([C@H]4CC[C@@H](N5CCOCC5)CC4)cc23)cnn1C` [Compound I-96, 4-((1s,4s)-4-(3-(1,5-dimethyl-1H-pyrazol-4-yl)-1H-pyrrolo[2,3-b]pyridin-5-yl)cyclohexyl)morpholine] here?
Answer: Its IC50 is 1700 nM.

Question: Which IC50 does the source give for `C[C@H]1COCCN1[C@H]1CC[C@H](c2cnc3[nH]cc(-c4cnn(C)c4)c3c2)CC1` [Compound I-103, (S)-3-methyl-4-((1r,4S)-4-(3-(1-methyl-1H-pyrazol-4-yl)-1H-pyrrolo[2,3-b]pyridin-5-yl)cyclohexyl)morpholine] here?
Answer: Its IC50 is 263 nM.

Question: `C[C@H]1COCCN1[C@H]1CC[C@@H](c2cnc3[nH]cc(-c4cnn(C)c4)c3c2)CC1` [Compound I-104, (S)-3-methyl-4-((1s,4R)-4-(3-(1-methyl-1H-pyrazol-4-yl)-1H-pyrrolo[2,3-b]pyridin-5-yl)cyclohexyl)morpholine] was tested. Which IC50 did it give?
Answer: The IC50 was 138 nM.

Question: Which IC50 does the source give for `CC(C)N[C@H]1CC[C@H](c2cnc3[nH]cc(-c4cnn(C)c4)c3c2)CC1` [Compound I-105, (1r,4r)-N-isopropyl-4-(3-(1-methyl-1H-pyrazol-4-yl)-1H-pyrrolo[2,3-b]pyridin-5-yl)cyclohexanamine] here?
Answer: The IC50 was 320 nM.
